Results published in patent US9090593B2, “Bicyclic compounds as Pim inhibitors” (AMGEN INC., priority 2010, dated 2015).
Read-outs that look alike come from different tables or passages of the source. Blank lines part the entries; values can stand above or below the molecule they belong to.

Columns and labels:
[1] = biological target: T1, full length recombinant Pim-1 protein (Homo sapiens, UniProt P11309); experiment: Pim-1 enzyme assay (HTRF, phosphorylation of biotinylated-BAD (S112) peptide); assay type: biochemical; settings: enzyme assay, Pim-1; read-out: Pim_1_IC50
T1 construct: by full length recombinant Pim-1, Pim-2, or Pim-3 protein; hexahistidine tag followed by a thrombin cleavage site (N); made in house; host or cells: Sf9 (baculovirus) or E. coli (pET28)
In short: (§1)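 Full-length human Pim-1 or Pim-2 (His6-tagged, Sf9 or E. coli expressed, Ni and Superdex 75 purified) phosphorylates biotinylated BAD (S112) peptide in 60 mM Hepes pH 7.0, 0.05% BSA, 2 mM DTT. Stopped with 3 mM EDTA; HTRF read with Eu anti-phospho-BAD and streptavidin-APC. IC50 from 4-parameter logistic fit of percent of control.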

[2] = biological target: T2, Pim-1 stably transfected into the U2OS human osteogenic sarcoma line (Homo sapiens, UniProt P11309); experiment: Pim cell assay, phospho-BAD normalized against total BAD, U2OS stably transfected with Pim-1; assay type: cell-based; settings: read-out: Pim1_Cell_IC50
T2 construct: expressed in transfected cells; host or cells: U2OS human osteogenic sarcoma line
In short: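 U2OS cells stably expressing Pim-1 or Pim-2 were plated overnight at 37 °C, then dosed over a 10-point curve (final 0.3% DMSO; DMSO alone as high control). Lysates assayed for phospho- and total BAD by Meso Scale immunoassay; % phosphoprotein = (2×phospho)/(phospho+total)×100.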

[3] = biological target: T3, full length recombinant Pim-3 protein (Homo sapiens, UniProt Q86V86); experiment: Pim-3 enzyme assay (HTRF, phosphorylation of biotinylated-BAD (S112) peptide); assay type: biochemical; settings: read-out: Pim3 IC50
T3 construct: by full length recombinant Pim-1, Pim-2, or Pim-3 protein; purchased Millipore (UK)
From the text: Pim-3 was purchased from Millipore (UK).
The phosphorylation of biotinylated-BAD (S112) peptide by full length recombinant Pim-1, Pim-2, or Pim-3 protein was detected with streptavidin:Allophycocyanin (APC) conjugate and a europium (Eu) labeled antibody directed against phosphorylated-BAD (S112). […] The fluorescence is directly proportional to the amount of phosphorylated BAD peptide present in the reaction.
A reference compound was included on each assay plate in order to validate that plate; on one plate of every assay run, two additional reference compounds were included.
The final buffer conditions were as follows: 60 mM Hepes, pH 7.0, 0.05% BSA, 2 mM DTT. […] The reaction was stopped by the addition of 3 mM EDTA, and fluorescence was measured by an HTRF® Rubystar microplate reader. For each plate, percent of control (POC) values were calculated for each well. Values for the IC50 IP were estimated using a standard 4-parameter logistic model.

[4] = biological target: T4, full length recombinant Pim-2 protein (Homo sapiens, UniProt Q9P1W9); experiment: Pim-2 enzyme assay (HTRF, phosphorylation of biotinylated-BAD (S112) peptide); assay type: biochemical; settings: enzyme assay, Pim-2; read-out: Pim2_IC50
T4 construct: by full length recombinant Pim-1, Pim-2, or Pim-3 protein; hexahistidine tag followed by a thrombin cleavage site (N); made in house; host or cells: Sf9 (baculovirus) or E. coli (pET28)
In short: as §1

[5] = U2OS cells stably transfected with Pim-1, phospho-BAD, high dose […]

T2 sequence (P11309 whole entry): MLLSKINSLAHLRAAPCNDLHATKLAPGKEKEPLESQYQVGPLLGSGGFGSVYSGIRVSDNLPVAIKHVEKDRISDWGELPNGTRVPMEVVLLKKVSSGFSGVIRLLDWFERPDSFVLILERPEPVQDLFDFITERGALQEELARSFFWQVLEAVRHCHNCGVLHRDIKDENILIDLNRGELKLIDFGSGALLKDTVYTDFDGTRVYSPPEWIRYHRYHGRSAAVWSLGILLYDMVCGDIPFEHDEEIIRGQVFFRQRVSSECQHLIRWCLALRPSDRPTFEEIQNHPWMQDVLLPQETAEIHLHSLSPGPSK
T1 sequence (P11309 whole entry): as above
T4 sequence (Q9P1W9 whole entry): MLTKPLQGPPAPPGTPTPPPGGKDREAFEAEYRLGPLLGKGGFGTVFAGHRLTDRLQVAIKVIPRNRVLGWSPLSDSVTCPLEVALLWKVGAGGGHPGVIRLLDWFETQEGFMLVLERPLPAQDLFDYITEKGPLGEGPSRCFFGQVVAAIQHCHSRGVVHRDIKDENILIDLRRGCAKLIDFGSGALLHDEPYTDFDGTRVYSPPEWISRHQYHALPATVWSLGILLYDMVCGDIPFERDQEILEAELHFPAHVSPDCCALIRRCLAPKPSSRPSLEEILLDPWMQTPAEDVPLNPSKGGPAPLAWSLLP

SMILES: Fc1cccc(F)c1-c1ccc2[nH]nc(-c3cncc(O[C@@H]4CNCC[C@H]4F)n3)c2c1 (single isomer, unassigned) [Example 19, 5-(2,6-difluorophenyl)-3-(6-(trans-4-fluoropiperidin-3-yloxy)pyrazin-2-yl)-1H-indazole]
IC50 [1]: 5 nM
IC50 [2, 5]: 254 nM
IC50 [3]: 7 nM
IC50 [4]: 28 nM

SMILES: NC1CCN(c2cncc(-c3c[nH]c4ccc(-c5c(F)cccc5F)nc34)c2)CC1 [Example 32, 1-(5-(5-(2,6-difluorophenyl)-1H-pyrrolo[3,2-b]pyridin-3-yl)pyridin-3-yl)piperidin-4-amine]
IC50 [1]: 19 nM
IC50 [2]: 907 nM
IC50 [3]: 67 nM
IC50 [4]: 586 nM

SMILES: NC1CCN(c2cncc(-c3n[nH]c4ccc(-c5cc6ccccc6nc5O)cc34)n2)CC1 [Example 54, 3-(3-(6-(4-amino-1-piperidinyl)-2-pyrazinyl)-1H-indazol-5-yl)-2-quinolinol]
IC50 [1]: 7 nM
IC50 [2, 5]: 3660 nM
IC50 [3]: 4 nM
IC50 [4]: 183 nM

SMILES: NC1CCN(c2cncc(-c3n[nH]c4ccc(N5CCOCC5)cc34)n2)CC1 [Example 89, 1-(6-(5-(4-morpholinyl)-1H-indazol-3-yl)-2-pyrazinyl)-4-piperidinamine]
IC50 [1]: 28 nM
IC50 [2, 5]: 868 nM
IC50 [3]: 49 nM
IC50 [4]: 303 nM

SMILES: CN(C)c1cccc(-c2ccc3[nH]nc(-c4cncc(N5CCC(N)CC5)n4)c3c2)c1 [Example 108, 1-(6-(5-(3-(dimethylamino)phenyl)-1H-indazol-3-yl)-2-pyrazinyl)-4-piperidinamine]
IC50 [1]: 9 nM
IC50 [2, 5]: 866 nM
IC50 [3]: 6 nM
IC50 [4]: 153 nM

SMILES: NC1CCN(c2cncc(-c3n[nH]c4ccc(-c5ccnc6cc(F)ccc56)cc34)n2)CC1 [Example 110, 1-(6-(5-(7-fluoro-4-quinolinyl)-1H-indazol-3-yl)-2-pyrazinyl)-4-piperidinamine]
IC50 [1]: 8 nM
IC50 [2, 5]: 776 nM
IC50 [3]: 23 nM
IC50 [4]: 151 nM

SMILES: Nc1nccc(N2CCc3ccc(-c4ccc5[nH]nc(-c6cncc(N7CCC(N)CC7)n6)c5c4)cc32)n1 [Example 113, 4-(6-(3-(6-(4-amino-1-piperidinyl)-2-pyrazinyl)-1H-indazol-5-yl)-2,3-dihydro-1H-indol-1-yl)-2-pyrimidinamine]
IC50 [1]: 17 nM
IC50 [2, 5]: > 15800 nM
IC50 [3]: 33 nM
IC50 [4]: 549 nM

SMILES: Fc1ncc(Cl)cc1-c1ccc2[nH]nc(-c3cncc(O[C@@H]4CCCNC4)n3)c2c1 [Example 117, 5-(5-chloro-2-fluoro-3-pyridinyl)-3-(6-((3R)-3-piperidinyloxy)-2-pyrazinyl)-1H-indazole]
IC50 [1]: 18 nM
IC50 [2, 5]: 761 nM
IC50 [3]: 5 nM
IC50 [4]: 66 nM

SMILES: CC(C)Oc1cncc(-c2ccc3[nH]nc(-c4cncc(O[C@@H]5CCCNC5)n4)c3c2)c1 [Example 120, 5-(5-(1-methylethoxy)-3-pyridinyl)-3-(6-((3R)-3-piperidinyloxy)-2-pyrazinyl)-1H-indazole]
IC50 [1]: 3 nM
IC50 [2, 5]: 145 nM
IC50 [3]: 8 nM
IC50 [4]: 98 nM

SMILES: COc1cccc(-c2ccc3[nH]nc(-c4cncc(O[C@@H]5CCCNC5)n4)c3c2)n1 [Example 137, 5-(6-methoxy-2-pyridinyl)-3-(6((3R)-3-piperidinyloxy)-2-pyrazinyl)-1H-indazole]
IC50 [1]: 8 nM
IC50 [2, 5]: 585 nM
IC50 [3]: 6 nM
IC50 [4]: 63 nM

SMILES: CC(C)Oc1cccc(-c2ccc3[nH]nc(-c4cncc(O[C@@H]5CCCNC5)n4)c3c2)c1 [Example 146, 5-(3-(1-methylethoxy)phenyl)-3-(6-((3R)-3-piperidinyloxy)-2-pyrazinyl)-1H-indazole]
IC50 [1]: 7 nM
IC50 [2, 5]: 996 nM
IC50 [3]: 31 nM
IC50 [4]: 84 nM

SMILES: C(=C\C1CC1)/c1ccc2[nH]nc(-c3cncc(O[C@@H]4CCCNC4)n3)c2c1 [Example 147, 5-((E)-2-cyclopropylethenyl)-3-(6-((3R)-3-piperidinyloxy)-2-pyrazinyl)-1H-indazole]
IC50 [1]: 7 nM
IC50 [2, 5]: 724 nM
IC50 [3]: 13 nM
IC50 [4]: 105 nM

SMILES: C1=C(c2ccc3[nH]nc(-c4cncc(O[C@@H]5CCCNC5)n4)c3c2)CCOC1 [Example 148, 5-(3,6-dihydro-2H-pyran-4-yl)-3-(6-((3R)-3-piperidinyloxy)-2-pyrazinyl)-1H-indazole]
IC50 [1]: 6 nM
IC50 [2, 5]: 314 nM
IC50 [3]: 7 nM
IC50 [4]: 25 nM

SMILES: c1cnnc(-c2ccc3[nH]nc(-c4cncc(O[C@@H]5CCCNC5)n4)c3c2)c1 [Example 149, 3-(6-((3R)-3-piperidinyloxy)-2-pyrazinyl)-5-(3-pyridazinyl)-1H-indazole]
IC50 [1]: 6 nM
IC50 [2, 5]: 292 nM
IC50 [3]: 7 nM
IC50 [4]: 48 nM

SMILES: COc1cc(-c2ccc3[nH]nc(-c4cncc(O[C@@H]5CCCNC5)n4)c3c2)ccn1 [Example 160, 5-(2-methoxy-4-pyridinyl)-3-(6-((3R)-3-piperidinyloxy)-2-pyrazinyl)-1H-indazole]
IC50 [1]: 5 nM
IC50 [2, 5]: 108 nM
IC50 [3]: 12 nM
IC50 [4]: 24 nM

SMILES: Fc1cccc(F)c1-c1ccc2[nH]nc(-c3cncc(N4CCOCC4)n3)c2c1 [Example 169, 5-(2,6-difluorophenyl)-3-(6-(4-morpholinyl)-2-pyrazinyl)-1H-indazole]
IC50 [1]: 69 nM
IC50 [2, 5]: 2410 nM
IC50 [3]: 92 nM
IC50 [4]: 1640 nM

Continued by falling IC50 [1], values first:

IC50 [1]: 28 nM
IC50 [2, 5]: 2630 nM
IC50 [3]: 61 nM
IC50 [4]: 769 nM
SMILES: COc1nc2ccccc2cc1-c1ccc2[nH]nc(-c3cncc(N4CCC(N)CC4)n3)c2c1 [Example 2, 1-(6-(5-(2-methoxyquinolin-3-yl)-1H-indazol-3-yl)pyrazin-2-yl)piperidin-4-amine]

IC50 [1]: 15 nM
IC50 [2, 5]: 772 nM
IC50 [3]: 16 nM
IC50 [4]: 71 nM
SMILES: C1=C(c2ccc3[nH]nc(-c4cncc(O[C@@H]5CCCNC5)n4)c3c2)COCC1 [Example 154, 5-(5,6-dihydro-2H-pyran-3-yl)-3-(6-((3R)-3-piperidinyloxy)-2-pyrazinyl)-1H-indazole]

IC50 [1]: 12 nM
IC50 [2, 5]: 174 nM
IC50 [3]: 27 nM
IC50 [4]: 165 nM
SMILES: CC(C)Oc1nccc(-c2ccc3[nH]nc(-c4cncc(O[C@@H]5CCCNC5)n4)c3c2)n1 [Example 153, 5-(2-(1-methylethoxy)-4-pyrimidinyl)-3-(6-((3R)-3-piperidinyloxy)-2-pyrazinyl)-1H-indazole]

IC50 [1]: 12 nM
IC50 [2, 5]: 1740 nM
IC50 [3]: 12 nM
IC50 [4]: 32 nM
SMILES: O=C(NC1CC1)c1ccnc(-c2ccc3[nH]nc(-c4cncc(O[C@@H]5CCCNC5)n4)c3c2)c1 [Example 157, N-cyclopropyl-2-(3-(6-((3R)-3-piperidinyloxy)-2-pyrazinyl)-1H-indazol-5-yl)-4-pyridinecarboxamide]

IC50 [1]: 11 nM
IC50 [2, 5]: 402 nM
IC50 [3]: 11 nM
IC50 [4]: 58 nM
SMILES: Fc1cccnc1-c1ccc2[nH]nc(-c3cncc(O[C@@H]4CCCNC4)n3)c2c1 [Example 124, 5-(3-fluoro-2-pyridinyl)-3-(6-((3R)-3-piperidinyloxy)-2-pyrazinyl)-1H-indazole]

IC50 [1]: 7 nM
IC50 [2, 5]: 316 nM
IC50 [3]: 14 nM
IC50 [4]: 37 nM
SMILES: c1ccc(-c2ccc3[nH]nc(-c4cncc(O[C@@H]5CCCNC5)n4)c3c2)cc1 [Example 134, 5-phenyl-3-(6-((3R)-3-piperidinyloxy)-2-pyrazinyl)-1H-indazole]

IC50 [1]: 7 nM
IC50 [2, 5]: 1060 nM
IC50 [3]: 7 nM
IC50 [4]: 36 nM
SMILES: COc1nccc(-c2ccc3[nH]nc(-c4cncc(O[C@@H]5CCCNC5)n4)c3c2)n1 [Example 152, 5-(2-methoxy-4-pyrimidinyl)-3-(6-((3R)-3-piperidinyloxy)-2-pyrazinyl)-1H-indazole]

IC50 [1]: 2 nM
IC50 [2, 5]: 484 nM
IC50 [3]: 5 nM
IC50 [4]: 43 nM
SMILES: Nc1cc(-c2ccc3[nH]nc(-c4cncc(N5CCC(N)CC5)n4)c3c2)ccc1N1CCOCC1 [Example 105, 1-(6-(5-(3-amino-4-(4-morpholinyl)phenyl)-1H-indazol-3-yl)-2-pyrazinyl)-4-piperidinamine]

IC50 [1]: 2 nM
IC50 [2, 5]: 750 nM
IC50 [3]: 1 nM
IC50 [4]: 71 nM
SMILES: O=C(NC1CC1)c1cncc(-c2ccc3[nH]nc(-c4cncc(O[C@@H]5CCCNC5)n4)c3c2)c1 [Example 159, N-cyclopropyl-5-(3-(6-((3R)-3-piperidinyloxy)-2-pyrazinyl)-1H-indazol-5-yl)-3-pyridinecarboxamide]
